{
  "source": "patent US20020194634A1",
  "about": "“Insect control system” (priority 1999, published 2002)",
  "key": {"[1]": {"system": "transgenic Medfly (C. capitata) carrying the cytosine deaminase transgene", "assay": "5-FC susceptibility of transgenic Medfly expressing cytosine deaminase", "format": "in vivo, Ceratitis capitata", "procedure": "Using standard methods, a genetic construct is prepared bearing the C. capitata VG1 promoter operably linked to a cDNA encoding E. coli cytosine deaminase. The cytosine deaminase gene, when introduced into insect cells, confers sensitivity to the pro-drug 5-FC.\nThe construct is inserted into the Minos transposon using conventional techniques and, in addition, those described in U.S. Pat. No. 5,840,865. The modified transposon is then used to transform Medfly according to standard transgenesis procedures.\nTransgenic flies carrying the modified transposon are bred to create transgenic strains that express the cytosine deaminase enzyme. […] Moreover, cytosine deaminase expression is correlated with susceptibility to the pro-drug 5-FC administered in food to the flies.\nA highly susceptible strain is bred and male flies isolated. Introduction of male flies into a population of non-transgenic flies results in rapid transfer of the transgene. Female flies which are born inheriting the transgene are susceptible to 5-FC, whilst male files remain resistant."}, "[2]": {"system": "human colorectal carcinoma cells transfected with a construct expressing bacterial CD", "conditions": "CD-transfected vs untransfected colorectal carcinoma cells; cited from earlier work"}, "[3]": {"system": "non-transformed adult flies", "assay": "5-FC feeding of non-transformed adult flies", "format": "in vivo, Drosophila melanogaster", "conditions": "5-FC in food", "procedure": "(§1) To evaluate the effects of 5-FU on a D. melanogaster yw strain, flies were raised first on medium containing 5-FU. Groups of 25 flies were cultured on food containing various concentrations of the drug. Four vials of each concentration of the drug were used for each experiment and three experiments were performed. The surviving flies per vial were counted over a period of time. […] No eggs were laid on food containing more than 20 mM of 5-FU.\nThe effects of the pro-drug 5-FC on non-transformed adult flies were determined in a similar way."}, "[4]": {"system": "CD transformed flies", "assay": "5-FC feeding of CD transformed flies", "format": "in vivo, Drosophila melanogaster", "conditions": "female CD flies compared with male CD flies, 5-FC in food", "procedure": "The effect of the pro-drug 5-FC on CD transformed flies was determined by raising the flies on food containing various concentrations of 5-FC."}, "[5]": {"system": "D. melanogaster (strain yw)", "assay": "5-FU feeding toxicity in D. melanogaster yw strain", "format": "in vivo, Drosophila melanogaster", "conditions": "5-FU in food", "procedure": "FIG. 5. Sensitivity of D. melanogaster (strain yw) to 5-FU. The yw strain is used routinely as recipient for generation of transgenic lines. Flies were reared in stadard Drosophila food supplemented with 5-FU at the indicated concentrations of 0 mM, 5 mM, 10 mM, 20 mM, 30 mM, 50 mM 5-FU. The x-axis represents time in days and the y-axis represents the number of flies. The data points represent the number of surviving flies.\nFIG. 6. Dose-dependent lethality of D. melanogaster to 5-FU. The x-axis represents 5-FU concentration in mM and the y-axis represents the number of flies. Strain yw flies that were used in the above described transformation experiment were reared in standard Drosophila food supplemented with 5-FU at the indicated concentrations and viable flies were determined after 9 days. Each data point represents the mean±standard deviation of three separate experiments, each with 100 flies.\nas §1"}, "[6]": {"conditions": "budworm larvae, within 2 hours of a topical acephate application; cited from earlier work"}, "[7]": {"system": "acetylcholinesterase (AchE)", "conditions": "cited from earlier work"}, "[8]": {"system": "tobacco budworm Heliothis virescens", "conditions": "cited from earlier work"}, "[9]": {"system": "housefly", "conditions": "cited from earlier work"}, "[10]": {"system": "nicotinergic acetylcholine receptor (nAcR)", "conditions": "methyl group at the 3 position of the imidazole ring; cited from earlier work"}, "[11]": {"system": "adult boll weevil Anthonomus granids Boheman", "conditions": "cited from earlier work"}},
  "data": [
    {"smiles": "Nc1nc(=O)[nH]cc1F", "note": "[5-FC, 5-fluorocytosine]", "values": [
      {"measurement": "susceptibility to 5-FC", "setting": "[1]; female Medflies inheriting the transgene", "result": "susceptible"},
      {"measurement": "susceptibility to 5-FC", "setting": "[1]; male Medflies carrying the transgene", "result": "resistant"},
      {"measurement": "fold more sensitive to 5-FC than untransfected cells", "setting": "[2]", "result": "about 600 fold"},
      {"measurement": "reduction in fly viability", "setting": "[3]", "result": "substantially no reduction"},
      {"measurement": "viability with increasing 5-FC", "setting": "[4]", "result": "substantial reduction in viability"}
    ]},
    {"smiles": "O=c1[nH]cc(F)c(=O)[nH]1", "note": "[5-FU, 5-fluorouracil]", "values": [
      {"measurement": "concentration in food above which no eggs were laid", "setting": "[5]", "result": "more than 20 mM"},
      {"measurement": "concentration range causing efficient killing of flies", "setting": "[5]; within 9 days", "result": "30 to 50", "unit": "mM"}
    ]},
    {"smiles": "COP(=O)(NC(C)=O)SC", "note": "(stereo not drawn) [Acephate, O, S-dimethyl acetylphosphoramidothicate]", "values": [
      {"measurement": "methamidophos formed from acephate", "setting": "[6]", "result": "small amount"},
      {"measurement": "AchE inhibition (in words)", "setting": "[7]", "result": "not an AchE inhibitor"},
      {"measurement": "activity of acephate versus methamidophos", "setting": "[8]", "result": "comparable activity"}
    ]},
    {"smiles": "CN1CCN(Cc2ccc(Cl)nc2)C1=N[N+](=O)[O-]", "note": "[N-Me-imidacloprid]", "values": [
      {"measurement": "potency relative to imidacloprid", "setting": "[9]", "result": "as potent as imidacloprid"},
      {"measurement": "decrease in binding affinity to nAcR relative to imidacloprid", "setting": "[10]", "result": 100, "unit": "fold"}
    ]},
    {"smiles": "COP(N)(=O)SC", "note": "(stereo not drawn) [methamidophos, O, S-dimethyl phosphoramidothicate]", "values": [
      {"measurement": "AchE inhibition (in words)", "setting": "[7]", "result": "potent"},
      {"measurement": "activity of acephate versus methamidophos", "setting": "[8]", "result": "comparable activity"},
      {"measurement": "fold more toxic than acephate", "setting": "[11]", "result": 75, "unit": "fold"}
    ]}
  ]
}
